Starred links: 1 amine or outer side, 2 acyl side, 3 side chain; linkers in the order of their positions; H or OH if unused. Non-standard residues stand in square brackets, D forms with d. Residues, ends and D or L forms follow the SMILES beside them. Groups on a side chain read outwards from the residue. *: point of attachment. C18 diacid = O=C(O)CCCCCCCCCCCCCCCCC(=O)*; γGlu = O=C(O)[C@H](CCC(=O)[*:2])N[*:1]; Ac4c = NC1(C(=O)O)CCC1; AEEA = NCCOCCOCC(=O)O; Aib = CC(C)(N)C(=O)O

Drawing on US10570184B2, “GLP-1/glucagon receptor co-agonists for medical use” (Novo Nordisk A/S, priority 2014, dated 2020), this text covers EC50 for 4 molecules.

This assay addresses T1, human glucagon receptor (Homo sapiens, UniProt P47871).
T1 construct: expressed in transfected cells; host or cells: membranes of BHK cells, clone BHK hGCGR A3*25
Description: Assay (I)(b) glucagon receptor activation, CRE luciferase reporter gene assay in BHK cells. It counts as cell-based. As to conditions: without presence of serum albumin; read-out: GlucagonR EC50 (pM), [Assay (I)(b)]. The protocol: The purpose of this example was to test the activity or potency, of the glucagon derivatives of the invention, in vitro. The in vitro potency is the measure of human GLP-1 receptor (GLP-1R) or glucagon receptor (glucagonR) activation, respectively, in a whole cell assay. In vitro potency was determined by measuring the response of human GLP-1 or glucagon receptor, respectively, in a reporter gene assay. The assay was performed in a stably transfected BHK cell line that expresses either the human GLP-1 receptor or the human glucagon receptor and contains the DNA for the cAMP response element (CRE) coupled to a promoter and the gene for firefly luciferase (CRE luciferase). […] When assay incubation was completed, the luciferase substrate (luciferin) was added and the enzyme converted luciferin to oxyluciferin and produces bioluminescence. The luminescence was measured as the readout for the assay. The cells used in this assay (clone pLJ6′-4-25) were BHK cells with BHK570 as a parent cell line expressing the CRE luciferase gene (clone BHK/KZ10-20-48) and were established by further transfection with the human glucagon receptor (clone pLJ6′ in pHZ-1 vector). The cells were cultured at 5% CO2 in DMEM medium with 10% FBS, 1×GlutaMAX, 1 mg/ml G418, 240 nM MTX (methotrexate) and 1% pen/strep (penicillin/streptomycin). They were aliquoted and stored in liquid nitrogen. Before each assay, an aliquot was taken up and washed three times in PBS before being suspended at the desired concentration in assay medium. For 96-well plates the suspension was made to give a final concentration of 5×10EE3 cells/well. The following chemicals were used in the assay: Pluronic F-68 (10%) (Gibco 2404), ovalbumin (Sigma A5503), DMEM w/o phenol red (Gibco 11880-028), 1 M Hepes (Gibco 15630), Glutamax 100× (Gibco 35050) and steadylite plus (PerkinElmer 6016757). Assay Medium consisted of DMEM w/o phenol red, 10 mM Hepes, 1× GlutaMAX, 2% Ovalbumin and 0.2% Pluronic F-68. Cell stocks were thawed in a 37° C. water bath. Cells were washed three times in PBS. The cells were counted and adjusted to 5×10EE3 cells/50 μl (1×10EE5 cells/ml) in Assay Medium. A 50 μl aliquot of cells was transferred to each well in the assay plate. Stocks of the test compounds and reference compounds were diluted to a concentration of […] in Assay Medium. Compounds were diluted 10-fold to give the following concentrations: 2×10EE-6 M, 2×10EE-7 M, 2×10EE-8 M; 2×10EE-9 M, 2×10EE-10 M, 2×10EE-11 M, 2×10EE-12 M and 2×10EE-13 M. For each compound a blank assay medium control was also included. A 50 μl aliquot of compound or blank was transferred from the dilution plate to the assay plate. Compounds were tested at the following final concentrations: 1×10EE-6 M, 1×10EE-7 M, 1×10EE-8 M; 1×10EE-9 M, 1×10EE-10 M, 1×10EE-11 M and 1×10EE-12 M and 1×10EE-13 M. The assay plate was incubated for 3 h in a 5% CO2 incubator at 37° C. The assay plate was removed from the incubator and allowed to stand at room temperature for 15 min. A 100 μl aliquot of steadylite plus reagent was added to each well of the assay plate (reagent is light sensitive). Each assay plate was covered with aluminum foil to protect it from light and shaken for 30 min at room temperature. Each assay plate was read in a Perkin Elmer TopCount NXT instrument. The data from the TopCount instrument was transferred to GraphPad Prism software. The software performed a non-linear regression (log(agonist) vs response-Variable slope (four parameter)). EC50 values were calculated by the software and reported in pM.
On the technique in general: In a reporter assay the amount or activity of a reporter protein is the signal.

T1 sequence (P47871 26-477): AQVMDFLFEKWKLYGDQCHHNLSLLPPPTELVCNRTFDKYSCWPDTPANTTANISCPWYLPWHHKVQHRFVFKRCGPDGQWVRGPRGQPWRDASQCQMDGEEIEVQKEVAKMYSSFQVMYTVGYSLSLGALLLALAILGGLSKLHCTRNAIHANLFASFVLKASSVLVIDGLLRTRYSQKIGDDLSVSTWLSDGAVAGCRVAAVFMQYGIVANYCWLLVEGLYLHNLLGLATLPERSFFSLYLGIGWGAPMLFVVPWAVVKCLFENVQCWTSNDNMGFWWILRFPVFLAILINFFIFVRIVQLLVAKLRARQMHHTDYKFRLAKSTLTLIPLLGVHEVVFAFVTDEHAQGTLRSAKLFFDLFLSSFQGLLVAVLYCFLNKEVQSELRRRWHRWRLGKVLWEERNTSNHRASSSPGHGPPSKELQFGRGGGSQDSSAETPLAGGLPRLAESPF

Usually EC50 stands for the concentration at which the effect is half-maximal. Take `CC[C@H](C)[C@H](NC(=O)[C@H](CC(C)C)NC(=O)[C@H](Cc1c[nH]c2ccccc12)NC(=O)[C@H](CCCCNC(=O)COCCOCCNC(=O)COCCOCCNC(=O)CC[C@H](NC(=O)CC[C@H](NC(=O)CC[C@H](NC(=O)CCCCCCCCCCCCCCCCC(=O)O)C(=O)O)C(=O)O)C(=O)O)NC(=O)[C@@H](NC(=O)[C@H](Cc1ccccc1)NC(=O)[C@H](CCC(=O)O)NC(=O)[C@H](CCCNC(=N)N)NC(=O)[C@H](C)NC(=O)[C@H](CCCNC(=N)N)NC(=O)[C@H](CCCNC(=N)N)NC(=O)[C@H](C)NC(=O)[C@H](CC(=O)O)NC(=O)[C@H](CC(C)C)NC(=O)[C@H](Cc1ccc(O)cc1)NC(=O)[C@H](CCCCN)NC(=O)[C@H](CO)NC(=O)[C@H](Cc1ccc(O)cc1)NC(=O)[C@H](CC(=O)O)NC(=O)[C@H](CO)NC(=O)[C@@H](NC(=O)[C@H](Cc1ccccc1)NC(=O)[C@@H](NC(=O)CNC(=O)[C@H](CCC(N)=O)NC(=O)C(C)(C)NC(=O)[C@@H](N)Cc1c[nH]cn1)[C@@H](C)O)[C@@H](C)O)C(C)C)C(=O)N[C@@H](CO)C(=O)N[C@H](C(N)=O)[C@@H](C)O` [Chem. 4, N^ε24-[2-[2-[2-[[2-[2-[2-[[(4S)-4-carboxy-4-[[(4S)-4-carboxy-4-[[(4S)-4-carboxy-4-(17-carboxyheptadecanoylamino)butanoyl]amino]butanoyl]amino]butanoyl]amino]ethoxy]ethoxy]acetyl]amino]ethoxy]ethoxy]acetyl]-[Aib2,Ala16,Arg20,Glu21,Lys24,Ile27,Ser28]-Glucagon amide] (H-H[Aib]QGTFTSDYSKYLDARRAREFVK([AEEA-AEEA-γGlu-γGlu-γGlu-C18 diacid])WLIST-NH2; N-terminus assumed): the EC50 was 12 pM.

Turning to `CC[C@H](C)[C@H](NC(=O)[C@H](CC(C)C)NC(=O)[C@H](Cc1c[nH]c2ccccc12)NC(=O)[C@H](CCC(N)=O)NC(=O)[C@@H](NC(=O)[C@H](Cc1ccccc1)NC(=O)[C@H](CC(=O)O)NC(=O)[C@H](CCC(N)=O)NC(=O)[C@H](C)NC(=O)[C@H](CCCNC(=N)N)NC(=O)[C@H](CCCNC(=N)N)NC(=O)[C@H](C)NC(=O)[C@H](CC(=O)O)NC(=O)[C@H](CC(C)C)NC(=O)[C@H](Cc1ccc(O)cc1)NC(=O)[C@H](CCCCN)NC(=O)[C@H](CO)NC(=O)[C@H](CC(C)C)NC(=O)[C@H](CC(=O)O)NC(=O)[C@H](CO)NC(=O)[C@@H](NC(=O)[C@H](Cc1ccccc1)NC(=O)[C@@H](NC(=O)CNC(=O)[C@H](CCC(N)=O)NC(=O)C(C)(C)NC(=O)[C@@H](N)Cc1c[nH]cn1)[C@@H](C)O)[C@@H](C)O)C(C)C)C(=O)N[C@@H](CCCCNC(=O)COCCOCCNC(=O)COCCOCCNC(=O)CC[C@H](NC(=O)CC[C@H](NC(=O)CC[C@H](NC(=O)CCCCCCCCCCCCCCCCC(=O)O)C(=O)O)C(=O)O)C(=O)O)C(=O)N[C@H](C(N)=O)[C@@H](C)O` [Chem. 7, N^ε28-[2-[2-[2-[[2-[2-[2-[[(4S)-4-carboxy-4-[[(4S)-4-carboxy-4-[[(4S)-4-carboxy-4-(17-carboxyheptadecanoylamino)butanoyl]amino]butanoyl]amino]butanoyl]amino]ethoxy]ethoxy]acetyl]amino]ethoxy]ethoxy]acetyl]-[Aib2,Leu10,Ala16,Ile27,Lys28]-Glucagon amide] (H-H[Aib]QGTFTSDLSKYLDARRAQDFVQWLIK([AEEA-AEEA-γGlu-γGlu-γGlu-C18 diacid])T-NH2; N-terminus assumed), the EC50 amounted to 32 pM.

Regarding `CC[C@H](C)[C@H](NC(=O)[C@H](CC(C)C)NC(=O)[C@H](Cc1c[nH]c2ccccc12)NC(=O)[C@H](CCC(N)=O)NC(=O)[C@@H](NC(=O)[C@H](Cc1ccccc1)NC(=O)[C@H](CCC(=O)O)NC(=O)[C@H](CCCNC(=N)N)NC(=O)[C@H](C)NC(=O)[C@H](CCCNC(=N)N)NC(=O)[C@H](CCCNC(=N)N)NC(=O)[C@H](CO)NC(=O)[C@H](CCC(=O)O)NC(=O)[C@H](CC(C)C)NC(=O)[C@H](Cc1ccc(O)cc1)NC(=O)[C@H](CCCCN)NC(=O)[C@H](CO)NC(=O)[C@H](CC(C)C)NC(=O)[C@H](CC(=O)O)NC(=O)[C@H](CO)NC(=O)[C@@H](NC(=O)[C@H](Cc1ccccc1)NC(=O)[C@@H](NC(=O)CNC(=O)[C@H](CCC(N)=O)NC(=O)C1(NC(=O)[C@@H](N)Cc2c[nH]cn2)CCC1)[C@@H](C)O)[C@@H](C)O)C(C)C)C(=O)N[C@@H](CCCCNC(=O)COCCOCCNC(=O)COCCOCCNC(=O)CC[C@H](NC(=O)CC[C@H](NC(=O)CCCCCCCCCCCCCCCCC(=O)O)C(=O)O)C(=O)O)C(=O)N[C@H](C(N)=O)[C@@H](C)O` [Chem. 18, N^ε28-[2-[2-[2-[[2-[2-[2-[[(4S)-4-carboxy-4-[[(4S)-4-carboxy-4-(17-carboxyheptadecanoylamino)butanoyl]amino]butanoyl]amino]ethoxy]ethoxy]acetyl]amino]ethoxy]ethoxy]acetyl]-[Acb2,Leu10,Glu15,Arg20,Glu21,Ile27,Lys28]-Glucagon amide] (H-H[Ac4c]QGTFTSDLSKYLESRRAREFVQWLIK([AEEA-AEEA-γGlu-γGlu-C18 diacid])T-NH2), the half-maximal effective concentration (EC50) turned out to be 32 pM.

With `CC[C@H](C)[C@H](NC(=O)[C@H](CC(C)C)NC(=O)[C@H](Cc1c[nH]c2ccccc12)NC(=O)[C@H](CCC(N)=O)NC(=O)[C@@H](NC(=O)[C@H](Cc1ccccc1)NC(=O)[C@H](CC(=O)O)NC(=O)[C@H](CCCNC(=N)N)NC(=O)[C@H](C)NC(=O)[C@H](CCCNC(=N)N)NC(=O)[C@H](CCCNC(=N)N)NC(=O)[C@H](C)NC(=O)[C@H](CC(=O)O)NC(=O)[C@H](CC(C)C)NC(=O)[C@H](Cc1ccc(O)cc1)NC(=O)[C@H](CCCCN)NC(=O)[C@H](CO)NC(=O)[C@H](CC(C)C)NC(=O)[C@H](CC(=O)O)NC(=O)[C@H](CO)NC(=O)[C@@H](NC(=O)[C@H](Cc1ccccc1)NC(=O)[C@@H](NC(=O)CNC(=O)[C@H](CCC(N)=O)NC(=O)C(C)(C)NC(=O)[C@@H](N)Cc1c[nH]cn1)[C@@H](C)O)[C@@H](C)O)C(C)C)C(=O)N[C@@H](CO)C(=O)N[C@@H](CCCCNC(=O)CC[C@H](NC(=O)CC[C@H](NC(=O)COCCOCCNC(=O)COCCOCCNC(=O)CC[C@H](NC(=O)CCCCCCCCCCCCCCCCC(=O)O)C(=O)O)C(=O)O)C(=O)O)C(N)=O` [Chem. 27, N^ε29-[(4S)-4-carboxy-4-[[(4S)-4-carboxy-4-[[2-[2-[2-[[2-[2-[2-[[(4S)-4-carboxy-4-(17-carboxyheptadecanoylamino)butanoyl]amino]ethoxy]ethoxy]acetyl]amino]ethoxy]ethoxy]acetyl]amino]butanoyl]amino]butanoyl]-[Aib2,Leu10,Ala16,Arg20,Ile27,Ser28,Lys29]-Glucagon amide] (H-H[Aib]QGTFTSDLSKYLDARRARDFVQWLISK([γGlu-γGlu-AEEA-AEEA-γGlu-C18 diacid])-NH2; N-terminus assumed), the EC50 came out at 66 pM.
